Source: patent EP3878447A1, “BETA ADRENERGIC RECEPTOR ANTAGONISTS” (InterAx Biotech AG, priority 2020, dated 2021)
Where a name gives a salt, the structure may show the parent alone. Read-outs that look alike come from different tables or passages of the source.

Experiments:
B2AR [1] = target: T1, B2AR (Homo sapiens, UniProt P07550)
B2AR [2] = target: T1, B2AR; test: Heterologous competition radioligand binding assay ([3H]-DHA) on SNAP-B2AR HEK membranes; settings: equilibrium competition binding with 1 nM [3H]-DHA, 120 min RT, mean ± SD
B1AR = B1AR (Homo sapiens, UniProt P08588); test: Real-time cAMP inhibition assay in SNAP-B1AR-EPAC HEK cells; settings: SNAP-B1AR-EPAC HEK cells stimulated with 50 nM Isoproterenol for 10 min, compound for additional 40 min, AUC of EPAC FRET ratio; mean ± SD
B1AR, sequence (P08588 whole entry): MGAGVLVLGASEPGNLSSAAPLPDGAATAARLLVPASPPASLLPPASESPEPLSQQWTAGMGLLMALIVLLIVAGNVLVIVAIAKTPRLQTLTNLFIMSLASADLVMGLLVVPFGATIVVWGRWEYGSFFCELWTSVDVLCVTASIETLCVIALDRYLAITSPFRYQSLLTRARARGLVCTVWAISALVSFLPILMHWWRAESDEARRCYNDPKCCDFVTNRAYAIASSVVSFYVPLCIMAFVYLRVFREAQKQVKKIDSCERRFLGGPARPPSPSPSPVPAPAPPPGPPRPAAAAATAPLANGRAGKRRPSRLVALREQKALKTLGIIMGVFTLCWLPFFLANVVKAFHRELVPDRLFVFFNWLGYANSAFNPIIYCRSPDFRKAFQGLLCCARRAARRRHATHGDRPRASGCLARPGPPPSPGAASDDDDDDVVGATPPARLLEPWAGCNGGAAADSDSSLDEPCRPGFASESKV

B2AR [3] = target: T1, B2AR; test: biochemical
B2AR [4] = target: T1, B2AR; test: Saturation binding of [3H]-DHA on SNAP-B2AR HEK membranes; parameters: membranes prepared from it; settings: 5 µg SNAP-B2AR HEK membranes, specific binding; Mean ± SD, n=3; read-out: equilibrium dissociation constant (KD)

Compound | Ki (B2AR [1]) [nM] | pKi (B2AR [2]) | Ki (B2AR [3]) [nM] | further results
4-[2-(aminomethyl)-2,3-dihydro-1-benzofuran-7-yl]benzamide [Compound 7] | 1260 | 6.0 ± 0.1 | – | pIC50 (B1AR): 4.6 ± 0.5
5-[2-(aminomethyl)-2,3-dihydro-1-benzofuran-7-yl]pyridin-2-amine [Compound 5] | 2510 | 5.5 ± 0.1 | – | –
NCC1Cc2cccc(-c3ccc(O)cc3)c2O1 (stereo not drawn) [Compound 4, 4-[2-(aminomethyl)-2,3-dihydro-1-benzofuran-7-yl]phenol] | – | – | 100 to 1000 | –
CCCc1ccccc1OC[C@@H](O)CNC(C)C [[^3H]-DHA, Dihydroalprenolol Hydrochloride, Levo-[Ring, Propyl-3H(N)]-] | – | – | – | Kd (B2AR [4]): 0.3 ± 0.1 nM

More lines, main results first:

Ki (B2AR [1]) [nM] | pKi (B2AR [2]) | Ki (B2AR [3]) [nM] | Compound | further results
– | – | 100 to 1000 | COc1ccc(-c2cc(F)cc3c2OC(CN)C3)cn1 (stereo not drawn) [Compound 6, 1-[5-fluoro-7-(6-methoxypyridin-3-yl)-2,3-dihydro-1-benzofuran-2-yl]methanamine] | –
– | – | 100 to 1000 | NCC1Cc2cccc(-c3ccc(O)c(F)c3)c2O1 (stereo not drawn) [Compound 8, 4-[2-(aminomethyl)-2,3-dihydro-1-benzofuran-7-yl]-2-fluorophenol] | –
